24 molecules from US11427548B2 (Arvinas Operations, Inc., priority 2015, dated 2022) can be followed below.

The assay concerns the target T1, Androgen Receptor (Homo sapiens, UniProt P10275+P40337, T878A).
T1 construct: Compounds have been evaluated in this assay in LNCaP and/or VCaP cells utilizing similar protocols; endogenous in cells; host or cells: LNCaP cells
Nature of the assay: Androgen Receptor ELISA assay (PathScan AR ELISA) in LNCaP cells: AR degradation, Dmax and DC50. It counts as cell-based. The following applies: for DC50: concentration that caused 50% Androgen Receptor degradation; for Dmax: highest percentage of Androgen Receptor degradation.

T1 sequence (P10275 whole entry T878A): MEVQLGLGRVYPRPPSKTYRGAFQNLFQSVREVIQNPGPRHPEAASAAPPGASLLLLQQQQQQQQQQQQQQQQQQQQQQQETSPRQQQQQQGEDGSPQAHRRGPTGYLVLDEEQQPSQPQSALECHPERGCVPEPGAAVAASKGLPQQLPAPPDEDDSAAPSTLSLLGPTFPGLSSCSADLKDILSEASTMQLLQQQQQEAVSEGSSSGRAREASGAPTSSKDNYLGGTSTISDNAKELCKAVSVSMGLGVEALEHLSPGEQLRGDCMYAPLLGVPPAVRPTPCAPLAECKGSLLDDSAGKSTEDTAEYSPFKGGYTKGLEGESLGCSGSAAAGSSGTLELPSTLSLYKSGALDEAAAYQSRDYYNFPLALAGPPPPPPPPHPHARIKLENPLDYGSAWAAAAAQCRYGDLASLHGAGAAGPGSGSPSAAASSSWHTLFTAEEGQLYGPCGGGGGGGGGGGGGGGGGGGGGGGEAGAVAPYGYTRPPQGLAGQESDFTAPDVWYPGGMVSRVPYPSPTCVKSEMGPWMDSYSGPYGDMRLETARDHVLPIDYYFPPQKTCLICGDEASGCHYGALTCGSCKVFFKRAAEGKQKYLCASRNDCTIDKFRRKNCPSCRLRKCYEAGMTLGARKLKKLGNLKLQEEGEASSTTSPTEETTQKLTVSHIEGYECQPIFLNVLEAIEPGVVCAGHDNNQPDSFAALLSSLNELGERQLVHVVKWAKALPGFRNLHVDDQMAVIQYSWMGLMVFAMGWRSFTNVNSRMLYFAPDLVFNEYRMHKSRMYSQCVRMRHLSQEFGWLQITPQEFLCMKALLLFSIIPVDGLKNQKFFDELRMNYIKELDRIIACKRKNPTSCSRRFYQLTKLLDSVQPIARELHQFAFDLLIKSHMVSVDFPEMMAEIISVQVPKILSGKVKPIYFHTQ
T1 sequence (P40337 whole entry): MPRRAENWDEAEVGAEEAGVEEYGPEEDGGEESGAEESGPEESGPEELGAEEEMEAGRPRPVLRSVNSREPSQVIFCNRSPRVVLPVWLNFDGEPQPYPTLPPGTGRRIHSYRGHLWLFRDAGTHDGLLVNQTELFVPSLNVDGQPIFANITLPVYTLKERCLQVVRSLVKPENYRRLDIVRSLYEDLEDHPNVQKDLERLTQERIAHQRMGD
T1 sequence (Q15369 whole entry partner): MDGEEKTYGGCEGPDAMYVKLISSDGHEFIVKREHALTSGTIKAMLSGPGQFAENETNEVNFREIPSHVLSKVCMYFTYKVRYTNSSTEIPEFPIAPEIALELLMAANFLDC
T1 sequence (Q15370 whole entry partner): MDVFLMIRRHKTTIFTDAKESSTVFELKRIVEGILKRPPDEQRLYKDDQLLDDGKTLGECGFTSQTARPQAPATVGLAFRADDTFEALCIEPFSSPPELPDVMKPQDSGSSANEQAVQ

In turn, `Cc1ncsc1-c1ccc(CNC(=O)[C@@H]2C[C@@H](O)CN2C(=O)[C@H](C(C)C)N2Cc3cc(CCCOCCOc4ccc(N5C(=S)N(c6ccc(C#N)c(C(F)(F)F)c6)C(=O)C5(C)C)cc4)ccc3C2=O)cc1` [Example 248] registered a DC50 of 51 to 500 nM and a Dmax of 26 to 50%.
For `Cc1ncsc1-c1ccc(CNC(=O)[C@@H]2C[C@@H](O)CN2C(=O)[C@@H](NC(=O)CCCCCOCCCCCOc2ccc(N3C(=S)N(c4ccc(C#N)c(C(F)(F)F)c4)C(=O)C3(C)C)cc2)C(C)(C)C)cc1` [Example 249] the same measures were 51 to 500 nM and greater than 71%.
For `Cc1ncsc1-c1ccc(CNC(=O)[C@@H]2C[C@@H](O)CN2C(=O)[C@H](C(C)C)N2Cc3ccccc3C2=O)c(OCCCOCCCOc2ccc(N3C(=S)N(c4ccc(C#N)c(C(F)(F)F)c4)C(=O)C3(C)C)cc2)c1` [Example 250] the same measures were 51 to 500 nM and greater than 71%.
For `Cc1ncsc1-c1ccc(CNC(=O)[C@@H]2C[C@@H](O)CN2C(=O)[C@H](C(C)C)N2Cc3cc(CCCCCOc4ccc(N5C(=S)N(c6ccc(C#N)c(C(F)(F)F)c6)C(=O)C5(C)C)cc4)ccc3C2=O)cc1` [Example 251] the same measures were 51 to 500 nM and 51 to 70%.
`Cc1ncsc1-c1ccc(CNC(=O)[C@@H]2C[C@@H](O)CN2C(=O)[C@H](C(C)C)N2Cc3cc(CCCCOCCOc4ccc(N5C(=S)N(c6ccc(C#N)c(C(F)(F)F)c6)C(=O)C5(C)C)cc4)ccc3C2=O)cc1` [Example 252]: the 50% degradation concentration (DC50) was 51 to 500 nM and the greatest degradation seen (Dmax) lay within 51 to 70%.
The molecule `Cc1ncsc1-c1ccc(CNC(=O)[C@@H]2C[C@@H](O)CN2C(=O)[C@@H](NC(=O)COCCCOCCOCCOc2ccc(N3C(=S)N(c4ccc(C#N)c(C(F)(F)F)c4)C(=O)C3(C)C)cc2)C(C)(C)C)cc1` [Example 253] registered a 50% degradation concentration (DC50) of 51 to 500 nM and a Dmax of 51 to 70%.
The corresponding values for `Cc1ncsc1-c1ccc(CNC(=O)[C@@H]2C[C@@H](O)CN2C(=O)[C@H](C(C)C)N2Cc3ccccc3C2=O)c(OCCCOc2ccc(N3C(=S)N(c4ccc(C#N)c(C(F)(F)F)c4)C(=O)C3(C)C)cc2)c1` [Example 254] are 51 to 500 nM and 51 to 70%.
For `Cc1ncsc1-c1ccc(CNC(=O)[C@@H]2C[C@@H](O)CN2C(=O)[C@@H](NC(=O)COCCCCOCCCCCOc2ccc(N3C(=S)N(c4ccc(C#N)c(C(F)(F)F)c4)C(=O)C3(C)C)cc2)C(C)(C)C)cc1` [Example 255] the same measures were 51 to 500 nM and greater than 71%.
The corresponding values for `Cc1ncsc1-c1ccc(CNC(=O)[C@@H]2C[C@@H](O)CN2C(=O)[C@H](C(C)C)N2Cc3ccccc3C2=O)c(OCCCCOc2ccc(N3C(=S)N(c4ccc(C#N)c(C(F)(F)F)c4)C(=O)C3(C)C)cc2)c1` [Example 256] are 51 to 500 nM and 51 to 70%.
On to `Cc1ncsc1-c1ccc(CNC(=O)[C@@H]2C[C@@H](O)CN2C(=O)[C@@H](NC(=O)c2ccc(OCCCCOc3ccc(N4C(=S)N(c5ccc(C#N)c(C(F)(F)F)c5)C(=O)C4(C)C)cc3)cc2)C(C)(C)C)cc1` [Example 257], for which the half-maximal degradation concentration (DC50) was in the range of 51 to 500 nM and the Dmax was in the range of 26 to 50%.
The corresponding values for `Cc1ncsc1-c1ccc(CNC(=O)[C@@H]2C[C@@H](O)CN2C(=O)[C@@H](NC(=O)c2ccc(OCCCCCOc3ccc(N4C(=S)N(c5ccc(C#N)c(C(F)(F)F)c5)C(=O)C4(C)C)cc3)cc2)C(C)(C)C)cc1` [Example 258] are 51 to 500 nM and 26 to 50%.
For `Cc1ncsc1-c1ccc(CNC(=O)[C@@H]2C[C@@H](O)CN2C(=O)[C@@H](NC(=O)CCCCOc2ccc(CCCOc3ccc(N4C(=S)N(c5ccc(C#N)c(C(F)(F)F)c5)C(=O)C4(C)C)cc3)cc2)C(C)(C)C)cc1` [Example 259] the same measures were 51 to 500 nM and greater than 71%.
For `Cc1ncsc1-c1ccc(CNC(=O)[C@@H]2C[C@@H](O)CN2C(=O)[C@H](C(C)C)N2Cc3ccccc3C2=O)c(OCCOc2ccc(N3C(=S)N(c4ccc(C#N)c(C(F)(F)F)c4)C(=O)C3(C)C)cc2)c1` [Example 261] the same measures were 51 to 500 nM and less than 25%.
For `Cc1ncsc1-c1ccc(CNC(=O)[C@@H]2C[C@@H](O)CN2C(=O)[C@@H](NC(=O)COCCOCCCOCCCOc2ccc(N3C(=S)N(c4ccc(C#N)c(C(F)(F)F)c4)C(=O)C3(C)C)cc2)C(C)(C)C)cc1` [Example 262], the half-maximal degradation concentration (DC50) lay within 51 to 500 nM and the greatest degradation seen (Dmax) is 26 to 50%.
The corresponding values for `Cc1ncsc1-c1ccc(CNC(=O)[C@@H]2C[C@@H](O)CN2C(=O)[C@@H](NC(=O)c2ccc(OCCOCCCCOc3ccc(N4C(=S)N(c5ccc(C#N)c(C(F)(F)F)c5)C(=O)C4(C)C)cc3)cc2)C(C)(C)C)cc1` [Example 263] are 51 to 500 nM and 26 to 50%.
For `Cc1ncsc1-c1ccc(CNC(=O)[C@@H]2C[C@@H](O)CN2C(=O)[C@@H](NC(=O)c2ccc(OCCOCCOc3ccc(N4C(=S)N(c5ccc(C#N)c(C(F)(F)F)c5)C(=O)C4(C)C)cc3)cc2)C(C)(C)C)cc1` [Example 264] the same measures were 51 to 500 nM and less than 25%.
For the molecule `Cc1ncsc1-c1ccc(CNC(=O)[C@@H]2C[C@@H](O)CN2C(=O)[C@@H](NC(=O)c2ccc(OCCCOc3ccc(N4C(=S)N(c5ccc(C#N)c(C(F)(F)F)c5)C(=O)C4(C)C)cc3)cc2)C(C)(C)C)cc1` [Example 265], the DC50 is 51 to 500 nM and the Dmax is less than 25%.
The corresponding values for `CC(=O)N[C@H](C(=O)N1C[C@H](O)C[C@H]1C(=O)NCc1ccc(-c2scnc2C)cc1OCCOCCOCCOc1ccc(N2C(=S)N(c3ccc(C#N)c(C(F)(F)F)c3)C(=O)C2(C)C)cc1)C(C)(C)C` [Example 266] are 51 to 500 nM and 51 to 70%.
For `CCC(=O)N[C@H](C(=O)N1C[C@H](O)C[C@H]1C(=O)NCc1ccc(-c2scnc2C)cc1OCCOCCOCCOc1ccc(N2C(=S)N(c3ccc(C#N)c(C(F)(F)F)c3)C(=O)C2(C)C)cc1)C(C)(C)C` [Example 267] the same measures were 51 to 500 nM and 51 to 70%.
The corresponding values for `CCC(=O)N[C@H](C(=O)N1C[C@H](O)C[C@H]1C(=O)NCc1ccc(-c2scnc2C)cc1OCCOCCOCCOc1ccc(N2C(=O)N(c3ccc(C#N)c(C(F)(F)F)c3)C(=O)C2(C)C)cc1)C(C)(C)C` [Example 268] are greater than 501 nM and 51 to 70%.
Turning to `Cc1ncsc1-c1ccc(CNC(=O)[C@@H]2C[C@@H](O)CN2C(=O)[C@@H](NC(=O)C(C)C)C(C)(C)C)c(OCCOCCOCCOc2ccc(N3C(=S)N(c4ccc(C#N)c(C(F)(F)F)c4)C(=O)C3(C)C)cc2)c1` [Example 269], the DC50 was greater than 501 nM and the Dmax lay in the range of 51 to 70%.
`Cc1ncsc1-c1ccc(CNC(=O)[C@@H]2C[C@@H](O)CN2C(=O)[C@@H](NC(=O)C(C)(C)C)C(C)(C)C)c(OCCOCCOCCOc2ccc(N3C(=S)N(c4ccc(C#N)c(C(F)(F)F)c4)C(=O)C3(C)C)cc2)c1` [Example 270] showed a half-maximal degradation concentration (DC50) of 51 to 500 nM and a Dmax of 51 to 70%.
For `CC(=O)NCC(=O)N1C[C@H](O)C[C@H]1C(=O)NCc1ccc(-c2scnc2C)cc1OCCOCCOCCOc1ccc(N2C(=S)N(c3ccc(C#N)c(C(F)(F)F)c3)C(=O)C2(C)C)cc1` [Example 271] the same measures were greater than 501 nM and 26 to 50%.
`CC(=O)N[C@@H](C)C(=O)N1C[C@H](O)C[C@H]1C(=O)NCc1ccc(-c2scnc2C)cc1OCCOCCOCCOc1ccc(N2C(=S)N(c3ccc(C#N)c(C(F)(F)F)c3)C(=O)C2(C)C)cc1` [Example 272] came in with a DC50 greater than 501 nM and a Dmax of less than 25%.
